# Like-named read-outs stand apart in the source and are kept apart here.
# How the values were obtained:
# M1 muscarinic receptor = molecular target: T1, M1 muscarinic receptor (Homo sapiens, UniProt P11229); assay: Functional mobilization of intracellular calcium (FLIPR, Fluo-3), M1-CHO cells; assay type: cell-based; conditions: for Emax: read-out: M1 Efficacy
# T1 construct: expressed in transfected cells; host or cells: CHO cells (M1-CHO, under zeocin and G418 selection)
# T1 sequence (P11229 1-460): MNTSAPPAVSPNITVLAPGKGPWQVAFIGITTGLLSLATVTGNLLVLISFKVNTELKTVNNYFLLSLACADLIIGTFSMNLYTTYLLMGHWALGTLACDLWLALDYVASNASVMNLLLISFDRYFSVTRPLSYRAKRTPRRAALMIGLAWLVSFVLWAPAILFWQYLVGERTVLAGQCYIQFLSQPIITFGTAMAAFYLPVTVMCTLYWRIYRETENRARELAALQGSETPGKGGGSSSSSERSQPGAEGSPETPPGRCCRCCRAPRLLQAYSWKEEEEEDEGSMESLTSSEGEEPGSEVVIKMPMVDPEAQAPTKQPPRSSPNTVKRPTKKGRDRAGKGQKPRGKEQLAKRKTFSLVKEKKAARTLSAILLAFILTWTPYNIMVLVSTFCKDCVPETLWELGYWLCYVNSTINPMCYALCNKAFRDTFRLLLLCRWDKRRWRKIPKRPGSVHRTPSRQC
# Method in brief: (§1)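 Fluo-3 read-out, ex 488/em 540 nm, 60 sec on FLIPR 3. For agonist mode, compound added directly; for inhibition, 15 min compound pre-incubation before carbachol at EC80 (added as a 3× solution), or co-application. Buffer pH 7.4 with 1 mM probenecid; DMSO 0.5%.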
# M4 muscarinic receptor = molecular target: T2, M4 muscarinic receptor (Homo sapiens, UniProt P08173); assay: Functional mobilization of intracellular calcium (FLIPR, Fluo-3), M4-CHO cells; assay type: cell-based; conditions: for Emax: read-out: M4 Efficacy
# T2 construct: expressed in transfected cells; host or cells: CHO cells (M4-CHO, under puromycin, zeocin and blasticidin selection)
# T2 sequence (P08173 1-479): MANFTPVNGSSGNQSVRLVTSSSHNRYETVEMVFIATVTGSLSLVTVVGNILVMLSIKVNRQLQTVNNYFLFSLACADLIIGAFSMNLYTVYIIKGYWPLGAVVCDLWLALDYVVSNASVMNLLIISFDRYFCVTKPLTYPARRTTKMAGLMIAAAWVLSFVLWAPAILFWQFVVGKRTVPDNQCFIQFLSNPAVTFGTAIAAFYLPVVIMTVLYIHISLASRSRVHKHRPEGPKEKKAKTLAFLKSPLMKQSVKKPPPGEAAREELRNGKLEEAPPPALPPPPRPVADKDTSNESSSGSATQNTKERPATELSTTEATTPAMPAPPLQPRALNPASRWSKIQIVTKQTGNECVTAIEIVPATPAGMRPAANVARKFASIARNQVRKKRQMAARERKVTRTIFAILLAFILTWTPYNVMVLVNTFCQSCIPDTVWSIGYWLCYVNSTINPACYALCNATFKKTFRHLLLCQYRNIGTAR
# Method in brief: as §1
# [1] = compound nos. 1-454, 100% efficacy is the maximum response obtained with the Carbachol control
# [2] = compound nos. 1-454, M1-CHO cells, calcium mobilization
# [3] = compound nos. 1-454, M4-CHO cells, calcium mobilization
# [4] = compound nos. 455-509, 100% efficacy is the maximum response obtained with the Carbachol control
Structure (SMILES),Emax (M1 muscarinic receptor; [1]),Emax (M4 muscarinic receptor; [1]),M1 Activity (M1 muscarinic receptor; [2]),M4 Activity (M4 muscarinic receptor; [3]),also measured
CN(C)C(=O)N1CC2(CCN(CC3CCN(c4cnccn4)C3)CC2)c2cc(F)ccc21 (stereo not drawn) [compound 448],> 85%,55 to 70%,–,–,M1 Activity (M1 muscarinic receptor; compound nos. 1-454): +++ (activity was measured to be less than or equal to 0.7 μM); M4 Activity (M4 muscarinic receptor; compound nos. 1-454): +++ (activity was measured to be less than or equal to 0.1 μM)
CN(C)C(=O)N1CC2(CCN(C3CCN(c4ccccc4F)CC3)CC2)c2cc(F)ccc21 [compound 437],65 to 85%,< 55%,–,–,M1 Activity (M1 muscarinic receptor; compound nos. 1-454): ++ (activity was measured to be between 0.7 μM and 3.0 μM); M4 Activity (M4 muscarinic receptor; compound nos. 1-454): ++ (activity was measured to be between 0.1 μM and 4.0 μM)
CC(=O)NC1CC2(CCN(C3CCCCCC3)CC2)c2ccccc21 (stereo not drawn) [compound 159],> 85%,> 70%,++ (activity was measured to be between 0.7 μM and 3.0 μM),+ (activity was measured to be greater than or equal to 4.0 μM),–
CN(C)C(=O)N1CC2(CCN(C3CCN(c4cnc(-c5ccncc5)cn4)CC3)CC2)c2ccccc21 [compound 467],–,–,–,–,Emax (M1 muscarinic receptor; [4]): > 100%; M1 Activity (M1 muscarinic receptor; compounds 455-509): +++ (activity was measured to be less than or equal to 2.0 μM); Emax (M4 muscarinic receptor; [4]): 25 to 100%; M4 Activity (M4 muscarinic receptor; compounds 455-509): + (activity was measured to be greater than or equal to 5.0 μM)
CCOC(=O)N1C2CCC1CC(N1CCC3(CC1)COc1ccc(Cl)cc13)C2 (stereo not drawn) [compound 99],< 65%,< 55%,+++ (activity was measured to be less than or equal to 0.7 μM),+ (activity was measured to be greater than or equal to 4.0 μM),–
CC#CCOC(=O)N1CCC(N2CCC3(CC2)CN(C(=O)N(C)C)c2ccc(F)cc23)CC1 [compound 353],> 85%,55 to 70%,+++ (activity was measured to be less than or equal to 0.7 μM),+ (activity was measured to be greater than or equal to 4.0 μM),–
CCOC(=O)N1CCC(N2CCC3(CC2)CN(C(=O)c2cccc(F)c2)c2ccc(F)cc23)CC1 [compound 410],< 65%,< 55%,–,–,M1 Activity (M1 muscarinic receptor; compound nos. 1-454): ++ (activity was measured to be between 0.7 μM and 3.0 μM); M4 Activity (M4 muscarinic receptor; compound nos. 1-454): ++ (activity was measured to be between 0.1 μM and 4.0 μM)
CN([C@H]1CC2(CCN(C[C@H]3C[C@H]4CC[C@H]3C4)CC2)c2ccccc21)S(C)(=O)=O [compound 357],< 65%,< 55%,++ (activity was measured to be between 0.7 μM and 3.0 μM),+ (activity was measured to be greater than or equal to 4.0 μM),–
CN(C)C(=O)N1CC2(CCN(C3(C)CCN(c4cnccn4)CC3)CC2)c2ccccc21 [compound 465],–,–,–,–,Emax (M1 muscarinic receptor; [4]): > 100%; M1 Activity (M1 muscarinic receptor; compounds 455-509): ++ (activity was measured to be between 2.0 μM and 5.0 μM); Emax (M4 muscarinic receptor; [4]): 25 to 100%; M4 Activity (M4 muscarinic receptor; compounds 455-509): ++ (activity was measured to be between 2.0 μM and 5.0 μM)
CC(=O)N1CC2(CCN(C3CCN(c4cnc(C)c(C)n4)CC3)CC2)c2ccccc21 [compound 471],–,–,–,–,Emax (M1 muscarinic receptor; [4]): > 100%; M1 Activity (M1 muscarinic receptor; compounds 455-509): ++ (activity was measured to be between 2.0 μM and 5.0 μM); Emax (M4 muscarinic receptor; [4]): 25 to 100%; M4 Activity (M4 muscarinic receptor; compounds 455-509): ++ (activity was measured to be between 2.0 μM and 5.0 μM)
C#CCOC(=O)N1CCC(CN2CCC3(CC2)C[C@H](NC(C)=O)c2ccccc23)CC1 [compound 364],> 85%,< 55%,+++ (activity was measured to be less than or equal to 0.7 μM),+ (activity was measured to be greater than or equal to 4.0 μM),–
CC(=O)N[C@H]1CC2(CCN(CC3CCCCC3)CC2)c2ccccc21 [compound 184],> 85%,55 to 70%,++ (activity was measured to be between 0.7 μM and 3.0 μM),+ (activity was measured to be greater than or equal to 4.0 μM),–
CC(=O)NC1CC2(CCN(CC3CC4C=CC3C4)CC2)c2ccccc21 (stereo not drawn) [compound 305],–,–,+ (activity was measured to be greater than or equal to 3.0 μM),+ (activity was measured to be greater than or equal to 4.0 μM),M1 Efficacy (M1 muscarinic receptor; [1]): + (efficacy was calculated to be 65% or less); M4 Efficacy (M4 muscarinic receptor; [1]): + (efficacy was calculated to be 55% or less)
CCCOC(=O)N1CCC(CN2CCC3(CC2)CN(C(C)=O)c2ccc(F)cc23)CC1 [compound 98],65 to 85%,< 55%,+++ (activity was measured to be less than or equal to 0.7 μM),++ (activity was measured to be between 0.1 μM and 4.0 μM),–
CCOC(=O)N1CCC(N2CCC3(CC2)CN(C(C)=O)c2ccc(-c4ccccc4)cc23)CC1 [compound 126],< 65%,< 55%,+++ (activity was measured to be less than or equal to 0.7 μM),+ (activity was measured to be greater than or equal to 4.0 μM),–
COCCOC(=O)N1C2CCC1CC(N1CCC3(CC1)COc1ccc(F)cc13)C2 (stereo not drawn) [compound 378],65 to 85%,55 to 70%,–,–,M1 Activity (M1 muscarinic receptor; compound nos. 1-454): ++ (activity was measured to be between 0.7 μM and 3.0 μM); M4 Activity (M4 muscarinic receptor; compound nos. 1-454): + (activity was measured to be greater than or equal to 4.0 μM)
O=C(OC1CCC1)N1C2CCC1CC(N1CCC3(CC1)C(=O)Nc1ccccc13)C2 (stereo not drawn) [compound 217],< 65%,< 55%,++ (activity was measured to be between 0.7 μM and 3.0 μM),+ (activity was measured to be greater than or equal to 4.0 μM),–
CC(=O)N[C@H]1CC2(CCN(C3CCOCC3)CC2)c2ccccc21 [compound 206],65 to 85%,< 55%,+++ (activity was measured to be less than or equal to 0.7 μM),+ (activity was measured to be greater than or equal to 4.0 μM),–
CCOC(=O)N1CCC(N2CCC3(CC2)CN(C(=O)c2ccc(F)cc2)c2ccc(F)cc23)CC1 [compound 77],65 to 85%,< 55%,+++ (activity was measured to be less than or equal to 0.7 μM),++ (activity was measured to be between 0.1 μM and 4.0 μM),–
C#CCCOC(=O)N1CCC(N2CCC3(CC2)CN(C(=O)N(C)C)c2ccc(F)cc23)CC1 [compound 127],65 to 85%,< 55%,+++ (activity was measured to be less than or equal to 0.7 μM),++ (activity was measured to be between 0.1 μM and 4.0 μM),–
c1ccc2c(c1)NCC21CCN(C2CC3CCC(C3)C2)CC1 (stereo not drawn) [compound 420],< 65%,< 55%,–,–,M1 Activity (M1 muscarinic receptor; compound nos. 1-454): ++ (activity was measured to be between 0.7 μM and 3.0 μM); M4 Activity (M4 muscarinic receptor; compound nos. 1-454): + (activity was measured to be greater than or equal to 4.0 μM)

# — patent publication US7858635B2 (priority 2005, dated 2010)
